Read-outs that look alike come from different tables or passages of the source. A value given as a limit tells only on which side of the number the result lay.

The target of test [1] is T1, CB1 (Homo sapiens, UniProt P21554).
T1 construct: expressed in transfected cells; host or cells: CHO-K1 (membranes)
The test is described as follows: CB1 activated Gαq16-coupled intracellular calcium mobilization assay in CHO-K1 cells (apparent affinity Ke). It counts as cell-based. To be noted: calcium mobilization. In general terms: A change in cytosolic calcium serves as a functional read-out for many receptors and channels.

Another test addresses T2, CB2 (Homo sapiens, UniProt P34972).
T2 construct: expressed in transfected cells; host or cells: CHO-K1 (membranes)
Put plainly: Displacement of [3H]CP55940 in membranes of CHO-K1 cells over-expressing CB2. It is filed as binding. The method, then: All compounds were characterized by H^1 NMR and evaluated using a calcium mobilization assay. Each compound was pharmacologically characterized using a functional fluorescent CB1 activated Gαq16-coupled intracellular calcium mobilization assay in CHO-K1 cells as has been previously described and apparent affinity (Ke) values were determined. See Zhang et al., J. Med. Chem. 2010, 53, 7048, which is incorporated herein by reference. Further characterization of select compounds was performed using radioligand displacement of [3H]1 and equilibrium dissociation constant (Ki) values were determined. Selectivity of these compounds at CB1 versus CB2 was also determined by obtaining Ki values at either receptor using displacement of [3H]CP55940 in membranes of CHO-K1 cells over-expressing either receptor. Data reported are average values from 3-6 measurements.
Select compounds were chosen for further study in radioligand displacement assays using radiolabeled rimonobant, SR141716 ([^3H]1). […] Selectivity against the CB2 receptor was determined by comparing the compound displacement of radiolabeled CP55940, which is a cannabinoid known to act as a full agonist at both CB1 and CB2 receptors. In general, tested compounds were selective for CB1 over CB2.
A general note: Displacement assays read how much labelled ligand stays bound in the presence of the test substance.

Test [2] addresses T1, CB1. Put plainly: Displacement of [3H]CP55940 in membranes of CHO-K1 cells over-expressing CB1. It counts as binding. To be noted: for Binding Selectivity using CP55940 Displacement: CB2 Ki over CB1 Ki; for Ki: read-out: Ki (nM) v. [3H] CP55940 at CB1.
[3] abbreviates: Table 5, read-out: Ke (nM) at CB1.
[4] abbreviates: Table 2, apparent affinity, read-out: Ke CB1.
Where [5] appears, read: Table 4, read-out: Ke (nM) at CB1.
The mark [6] stands for this setting: Table 4, read-out: Ki (nM) v. [3H] CP55940 at CB2.
[7] abbreviates: Table 5, read-out: Ki (nM) v. [3H] CP55940 at CB2.

T2 sequence (P34972 whole entry): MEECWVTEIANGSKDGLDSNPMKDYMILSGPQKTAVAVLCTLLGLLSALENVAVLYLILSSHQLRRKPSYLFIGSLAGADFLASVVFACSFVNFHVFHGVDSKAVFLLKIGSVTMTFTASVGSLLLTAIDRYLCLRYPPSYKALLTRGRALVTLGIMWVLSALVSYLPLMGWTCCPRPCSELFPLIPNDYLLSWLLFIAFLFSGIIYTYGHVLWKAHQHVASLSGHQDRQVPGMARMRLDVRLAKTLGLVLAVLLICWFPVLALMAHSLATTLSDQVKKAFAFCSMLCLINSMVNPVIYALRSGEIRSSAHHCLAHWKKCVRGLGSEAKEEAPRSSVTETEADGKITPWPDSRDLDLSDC
T1 sequence (P21554 whole entry): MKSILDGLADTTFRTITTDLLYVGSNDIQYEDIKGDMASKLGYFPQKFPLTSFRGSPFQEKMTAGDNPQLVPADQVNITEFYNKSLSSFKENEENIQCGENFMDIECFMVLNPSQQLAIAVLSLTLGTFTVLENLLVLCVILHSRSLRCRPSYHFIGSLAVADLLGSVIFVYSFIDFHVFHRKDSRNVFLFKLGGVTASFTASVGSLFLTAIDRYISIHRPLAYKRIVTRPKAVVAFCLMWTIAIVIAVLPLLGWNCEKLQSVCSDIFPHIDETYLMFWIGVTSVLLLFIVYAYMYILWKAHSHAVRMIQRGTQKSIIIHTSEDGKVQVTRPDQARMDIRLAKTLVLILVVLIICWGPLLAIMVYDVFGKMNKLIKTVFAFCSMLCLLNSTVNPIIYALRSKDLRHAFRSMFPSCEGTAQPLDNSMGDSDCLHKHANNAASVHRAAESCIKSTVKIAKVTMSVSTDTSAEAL

In the case of “4-C-5-(4-Chlorophenyl)-1-(2,4-dichlorophenyl)-4-methyl-1H-pyrazole-3-1-N-propylpiperidine-1,4-diamido [NH(n-propyl)]”, on CB1 [1] (setting [3]), the Kb is 66.5 nM.
With `Cc1c(C(=O)NCC2CCC(CNS(N)(=O)=O)CC2)nn(-c2ccc(Cl)cc2Cl)c1-c1ccc(Cl)cc1` (mixture of isomers), at CB2 (Table 3, radioligand [3H]CP55940, read-out: Ki(μM) CB2 CP55940), the Ki – broadly, a dissociation constant, usually derived from enzyme kinetics or from competition with a known ligand – stood at 1.79 µM.
As to `Cc1c(C(=O)NCc2cccc(CNS(N)(=O)=O)c2)nn(-c2ccc(Cl)cc2Cl)c1-c1ccc(Cl)cc1` [5-(4-chlorophenyl)-1-(2,4-dichlorophenyl)-4-methyl-N-({3-[(sulfamoylamino)methyl]phenyl}methyl)-1H-pyrazole-3-carboxamide], the Kb on CB1 [1] (setting [4]) was 4200 nM.
Same read-out and setting: the value for `Cc1c(C(=O)NCc2ccc(CNS(N)(=O)=O)cc2)nn(-c2ccc(Cl)cc2Cl)c1-c1ccc(Cl)cc1` [5-(4-chlorophenyl)-1-(2,4-dichlorophenyl)-4-methyl-N-({4-[(sulfamoylamino)methyl]phenyl}methyl)-1H-pyrazole-3-carboxamide] was 376 nM.
For `Cc1c(C(=O)NCCCCCCCNS(N)(=O)=O)nn(-c2ccc(Cl)cc2Cl)c1-c1ccc(Cl)cc1` [5-(4-chlorophenyl)-1-(2,4-dichlorophenyl)-4-methyl-N-[7-(sulfamoylamino)heptyl]-1H-pyrazole-3-carboxamide], the Kb on CB1 [1] (setting [4]) amounted to 304 nM.
The same measure, in the same setting: the value for `Cc1c(C(=O)N[C@H]2CC[C@H](NS(N)(=O)=O)CC2)nn(-c2ccc(Cl)cc2Cl)c1-c1ccc(Cl)cc1` [5-(4-chlorophenyl)-1-(2,4-dichlorophenyl)-4-methyl-N-[(1r,4r)-4-(sulfamoylamino)cyclohexyl]-1H-pyrazole-3-carboxamide] was 9430 nM; that for `Cc1c(C(=O)N[C@H]2CC[C@H](NS(C)(=O)=O)CC2)nn(-c2ccc(Cl)cc2Cl)c1-c1ccc(Cl)cc1` [5-(4-chlorophenyl)-1-(2,4-dichlorophenyl)-4-methyl-N-[(1r,4r)-4-methanesulfonamido-cyclohexyl]-1H-pyrazole-3-carboxamide] was >10000 nM; that for `Cc1c(C(=O)NCCCN(C)CCCNS(C)(=O)=O)nn(-c2ccc(Cl)cc2Cl)c1-c1ccc(Cl)cc1` [5-(4-chlorophenyl)-1-(2,4-dichlorophenyl)-N-{3-[(3-methanesulfonamidopropyl)(methyl)amino]propyl}-4-methyl-1H-pyrazole-3-carboxamide] was 5340 nM.
The same measure, in the same setting: the value for `Cc1c(C(=O)NCc2cccc(CNS(C)(=O)=O)c2)nn(-c2ccc(Cl)cc2Cl)c1-c1ccc(Cl)cc1` [5-(4-chlorophenyl)-1-(2,4-dichlorophenyl)-N-{[3-(methanesulfonamidomethyl)phenyl]methyl}-4-methyl-1H-pyrazole-3-carboxamide] was 2830 nM; that for `Cc1c(C(=O)NCc2ccc(CNS(C)(=O)=O)cc2)nn(-c2ccc(Cl)cc2Cl)c1-c1ccc(Cl)cc1` [5-(4-chlorophenyl)-1-(2,4-dichlorophenyl)-N-{[4-(methanesulfonamidomethyl)phenyl]methyl}-4-methyl-1H-pyrazole-3-carboxamide] was 2930 nM.
As for `Cc1c(C(=O)N2CCC(O)(c3ccccc3)CC2)nn(-c2ccc(Cl)cc2Cl)c1-c1ccc(C#N)cc1` [CN, phenyl, OH, 4-[1-(2,4-dichlorophenyl)-3-[(4-hydroxy-4-phenylpiperidin-1-yl)carbonyl]-4-methyl-1H-pyrazol-5-yl]benzonitrile], on CB1 [1] (setting [5]), the Kb came out at 907 nM.
Still for that read-out and setting: the value for `Cc1c(C(=O)N2CCC(N)CC2)nn(-c2ccc(Cl)cc2Cl)c1-c1ccc(Cl)cc1` [Cl, H, NH2, 1-{[5-(4-Chlorophenyl)-1-(2,4-dichlorophenyl)-4-methyl-1H-pyrazol-3-yl]carbonyl}piperidin-4-amine] was 1920 nM.
Still for that read-out and setting: as for `CCCNC(=O)NC1CCN(C(=O)c2nn(-c3ccc(Cl)cc3Cl)c(-c3ccc(Cl)cc3)c2C)CC1` [Cl, H, NHC(O)NHC3H7, 1-(1-{[5-(4-Chlorophenyl)-1-(2,4-dichlorophenyl)-4-methyl-1H-pyrazol-3-yl]carbonyl}piperidin-4-yl)-3-propylurea], the figure is 546 nM; as for `CCCCNC(=O)NC1CCN(C(=O)c2nn(-c3ccc(Cl)cc3Cl)c(-c3ccc(Cl)cc3)c2C)CC1` [Cl, H, NHC(O)NHC4H9, 3-Butyl-1-(1-{[5-(4-chlorophenyl)-1-(2,4-dichlorophenyl)-4-methyl-1H-pyrazol-3-yl]carbonyl}piperidin-4-yl)urea], 395 nM; as for `Cc1c(C(=O)N2CCC(NC(=O)NC(C)C)CC2)nn(-c2ccc(Cl)cc2Cl)c1-c1ccc(Cl)cc1` [Cl, H, NHC(O)NHCH(CH3)2, 1-(1-{[5-(4-Chlorophenyl)-1-(2,4-dichlorophenyl)-4-methyl-1H-pyrazol-3-yl]carbonyl}piperidin-4-yl)-3-(propan-2-yl)urea], 608 nM.
Regarding `Cc1c(C(=O)N2CCC(NC(=O)OC(C)(C)C)CC2)nn(-c2ccc(Cl)cc2Cl)c1-c1ccc(Cl)cc1` [Cl, H, NHC(O)O(t-butyl), tert-Butyl N-(1-{[5-(4-chlorophenyl)-1-(2,4-dichlorophenyl)-4-methyl-1H-pyrazol-3-yl]carbonyl}piperidin-4-yl)carbamate], the Kb at CB1 [1] (setting [5]) stood at 209 nM.
Regarding `Cc1c(C(=O)N2CCC(NS(C)(=O)=O)CC2)nn(-c2ccc(Cl)cc2Cl)c1-c1ccc(Cl)cc1` [Cl, H, NHS(O)2CH3, N-(1-{[5-(4-Chlorophenyl)-1-(2,4-dichlorophenyl)-4-methyl-1H-pyrazol-3-yl]carbonyl}piperidin-4-yl)methanesulfonamide], on CB1 [1] (setting [5]), the Kb came out at 146 nM.
As to `CCCCCCNC(=O)NC1(c2ccccc2)CCN(C(=O)c2nn(-c3ccc(Cl)cc3Cl)c(-c3ccc(Cl)cc3)c2C)CC1` [Cl, phenyl, NHC(O)NH(C6H13), 1-(1-{[5-(4-chlorophenyl)-1-(2,4-dichlorophenyl)-4-methyl-1H-pyrazol-3-yl]carbonyl}-4-phenylpiperidin-4-yl)-3-hexylurea], on CB1 [2] (Table 4), the “Binding Selectivity using CP55940 Displacement” value (“Binding Selectivity” for short) turned out to be 62.2 and the Ki came to 38.8 nM. At CB2 (setting [6]), the Ki turned out to be 2.41 µM.
Turning to `Cc1c(C(=O)N2CCC(NC(=O)NC3CCCCC3)(c3ccccc3)CC2)nn(-c2ccc(Cl)cc2Cl)c1-c1ccc(Cl)cc1` [Cl, phenyl, NHC(O)NH(cyclohexyl), 3-(1-{[5-(4-chlorophenyl)-1-(2,4-dichlorophenyl)-4-methyl-1H-pyrazol-3-yl]carbonyl}-4-phenylpiperidin-4-yl)-1-cyclohexylurea], on CB1 [2] (Table 4), the “Binding Selectivity” value is 25.3 and the Ki came to 792 nM. Moreover, at CB2 (setting [6]), the Ki is ≥ 20 µM.
For `CCCNC(=O)NC1(c2ccccc2)CCN(C(=O)c2nn(-c3ccc(Cl)cc3Cl)c(-c3ccc(Cl)cc3)c2C)CC1` [Cl, phenyl, NHC(O)NHC3H7, 1-(1-{[5-(4-chlorophenyl)-1-(2,4-dichlorophenyl)-4-methyl-1H-pyrazol-3-yl]carbonyl}-4-phenylpiperidin-4-yl)-3-propylurea], at CB1 [2] (Table 4), the “Binding Selectivity” value is 38.7 and the Ki was 7.57 nM. Further, the Ki on CB2 (setting [6]) was determined as 0.293 µM.
As to `CCNC(=O)NC1(c2ccccc2)CCN(C(=O)c2nn(-c3ccc(Cl)cc3Cl)c(-c3ccc(Cl)cc3)c2C)CC1` [Cl, phenyl, NHC(O)NHCH2CH3, 1-(1-{[5-(4-chlorophenyl)-1-(2,4-dichlorophenyl)-4-methyl-1H-pyrazol-3-yl]carbonyl}-4-phenylpiperidin-4-yl)-3-ethylurea], on CB1 [2] (Table 4), the “Binding Selectivity” value is recorded as 12.1. The Ki at CB1 [2] (Table 4) came to 15 nM; at CB2 (setting [6]), 0.182 µM.
In the case of `Cc1c(C(=O)NC2CCN(C(N)=O)CC2)nn(-c2ccc(Cl)cc2Cl)c1-c1ccc(Cl)cc1` [NH2, 4-C-5-(4-chlorophenyl)-1-(2,4-dichlorophenyl)-4-methyl-1H-pyrazole-3-piperidine-1,4-diamido], the Kb on CB1 [1] (setting [3]) came out at 4100 nM.
As for `Cc1c(C(=O)NC2CCN(C(=O)NC(C)C)CC2)nn(-c2ccc(Cl)cc2Cl)c1-c1ccc(Cl)cc1` [NH(isopropyl), 4-C-5-(4-Chlorophenyl)-1-(2,4-dichlorophenyl)-4-methyl-1H-pyrazole-3-1-N-(propan-2-yl)piperidine-1,4-diamido], at CB1 [2] (Table 5), the “Binding Selectivity” value was 175.7. Also, the results for the Ki at CB1 [2] (Table 5) and on CB2 (setting [7]) were 97.9 nM and 17.2 µM, respectively.
With `CCCCNC(=O)N1CCC(NC(=O)c2nn(-c3ccc(Cl)cc3Cl)c(-c3ccc(Cl)cc3)c2C)CC1` [NH(n-butyl), 1-N-Butyl-4-C-5-(4-chlorophenyl)-1-(2,4-dichlorophenyl)-4-methyl-1H-pyrazole-3-piperidine-1,4-diamido], the Ki is 149 nM at CB1 [2] (Table 5) and > 20 µM on CB2 (setting [7]).
Take `CCCCOC(=O)N1CCC(NC(=O)c2nn(-c3ccc(Cl)cc3Cl)c(-c3ccc(Cl)cc3)c2C)CC1` [OC4H9, Butyl 4-[5-(4-chlorophenyl)-1-(2,4-dichlorophenyl)-4-methyl-1H-pyrazole-3-amido]piperidine-1-carboxylate]: the Kb on CB1 [1] (setting [3]) is 88 nM.

(Values after patent US9133128B2, “Pyrazole derivatives as cannabinoid receptor 1 antagonists” (Research Triangle Institute, priority 2011, dated 2015).)
